Like-named read-outs stand apart in the source and are kept apart here.
What was measured:
HaCaT keratinocytes = assay: Fluorescein diacetate cellular viability assay; assay type: cell-based; details: Homo sapiens, light or radiation study, read after 24 h
Procedure: A fluorescein diacetate cellular viability assay measuring the viability of HaCaT keratinocytes in response to treatment with compound 92 without irradiation (no light) and when irradiated (Light) was carried out as follows:
HaCaT keratinocyte cells were seeded in two 96 well plates and incubated for 24 h at 37° C. 5% CO2. The incubating media was removed and compound 92 was added at a range of concentrations, along with a dimethyl sulfoxide (DMSO) control, before the cells were incubated for one hour at 37° C. 5% CO2, whereupon one plate was irradiated at 405 nm for 5 min (72 mW/cm^2). Both plates were then incubated at 37° C. 5% CO2 for 24 h. The media was removed, and cells were washed with 1× phosphate buffered saline (PBS), then fluorescein diacetate (FDA) was added, and the cells were incubated at RT, in the dark, for 10 min. The fluorescein diacetate stain was then removed, and cells were washed with 1× phosphate buffered saline. The plates were read at 485/520 nm to determine cell viability at differing treatment concentrations of compound 92 with and without light exposure.

HDAC enzymes = assay: Immunofluorescence imaging with anti-acetyl-H3 primary antibody (acetylated H3 histones); assay type: cell-based; details: HaCaT keratinocytes, compound at 5 μM
Procedure: HaCaT or SCC-4 cells were seeded at 50,000 cells per well in sterile coverslip containing 6-well plates. The next day, cells were treated with the compound of interest for 30 minutes before “Light” treated cells were irradiated. The following day, cells were then fixed using 4% PFA, permeabilised using Triton X-100/Tween 20, blocked in BSA/goat serum (dependent on the antibodies) and stained with primary then secondary antibodies before coverslips were mounted on slides and imaged on a Zeiss LSCM 880.
Immunofluorescence imaging of HaCaT keratinocytes treated with compound 92 (5 μM) and ethanol (EtOH), and co-treated with an anti-acetyl-H3 primary antibody that detects the presence of acetylated H3 histones was carried out as follows:
[…] Cells were washed in phosphate buffered saline then fixed in 4% PFA. Cells were washed again with phosphate buffered saline before blocking and permeabilization with 0.3% triton 100-X/5% goat serum in phosphate buffered saline for 60 min. Cells were then washed with phosphate buffered saline and anti-acetyl-histone 3 antibody was added and incubated overnight at 4° C. Second antibody (Alexa-594 anti-rabbit) was added for 45 min before cells were washed again and mounted for imaging.
This delayed behaviour is indicative of an initial lag phase as compound 92 is enzymatically metabolised to the active form.

Acetylated H3 build-up (nuclear ring phenotype) after one hour (HDAC enzymes; one hour): characteristic nuclear ring phenotype
Acetylated H3 build-up (nuclear ring phenotype) after ten minutes (HDAC enzymes; ten minutes): limited activity
SMILES: COC(=O)/C=C/c1ccc(C#Cc2cnc(N3CCN(C(=O)CCCCCCC(=O)NOC(C)=O)CC3)s2)cn1 [compound 92, Methyl (2E)-3-(5-{2-[2-(4-{7-[(acetyloxy)carbamoyl]heptanoyl}piperazin-1-yl)-1,3-thiazol-5-yl]ethynyl}pyridin-2-yl)prop-2-enoate]
IC50 (HaCaT keratinocytes; 1 h treatment, irradiated at 405 nm for 5 min (72 mW/cm^2), read-out: IC50 cell viability, light activation): 0.69 µM
IC50 (HaCaT keratinocytes; no irradiation, read-out: IC50 cell viability, without light activation): 5.5 µM

From patent publication US12661405B2, “Protected HDAC (histone deacetylase) inhibitors” (LIGHTOX LIMITED, priority 2021, dated 2026)
